“Also recorded” adds a separate entry of the source. Read-outs that look alike come from different tables or passages of the source. Values belong to the molecule of their own block, whether it stands above or below them. Starred links: 1 amine or outer side, 2 acyl side, 3 side chain; linkers in the order of their positions; H or OH if unused. Non-standard residues stand in square brackets, D forms with d. Residues, ends and D or L forms follow the SMILES beside them. *: point of attachment. RhodamineB = CCN(CC)c1ccc2c(-c3ccccc3C(=O)*)c3ccc(=[N+](CC)CC)cc-3oc2c1; X1 = COC(=O)/C=C/CC[C@H](N[*:1])C(=O)[*:2]; X2 = COC(=O)C=CCCC[C@H](N[*:1])C(=O)[*:2]; X3 = COC(=O)C=CC[C@H](N[*:1])C(=O)[*:2]; Nle = CCCC[C@H](N)C(=O)O; Orn = NCCC[C@H](N)C(=O)O; Dab = NCC[C@H](N)C(=O)O; Acryloyl = C=CC(=O)*; Ahx = NCCCCCC(=O)O
Target: T1, Thrombin-activated human FXIIIa (Homo sapiens, UniProt P00488)
T1 construct: purchased Zedira GmbH T070
T1 sequence (P00488 39-732 limits assumed): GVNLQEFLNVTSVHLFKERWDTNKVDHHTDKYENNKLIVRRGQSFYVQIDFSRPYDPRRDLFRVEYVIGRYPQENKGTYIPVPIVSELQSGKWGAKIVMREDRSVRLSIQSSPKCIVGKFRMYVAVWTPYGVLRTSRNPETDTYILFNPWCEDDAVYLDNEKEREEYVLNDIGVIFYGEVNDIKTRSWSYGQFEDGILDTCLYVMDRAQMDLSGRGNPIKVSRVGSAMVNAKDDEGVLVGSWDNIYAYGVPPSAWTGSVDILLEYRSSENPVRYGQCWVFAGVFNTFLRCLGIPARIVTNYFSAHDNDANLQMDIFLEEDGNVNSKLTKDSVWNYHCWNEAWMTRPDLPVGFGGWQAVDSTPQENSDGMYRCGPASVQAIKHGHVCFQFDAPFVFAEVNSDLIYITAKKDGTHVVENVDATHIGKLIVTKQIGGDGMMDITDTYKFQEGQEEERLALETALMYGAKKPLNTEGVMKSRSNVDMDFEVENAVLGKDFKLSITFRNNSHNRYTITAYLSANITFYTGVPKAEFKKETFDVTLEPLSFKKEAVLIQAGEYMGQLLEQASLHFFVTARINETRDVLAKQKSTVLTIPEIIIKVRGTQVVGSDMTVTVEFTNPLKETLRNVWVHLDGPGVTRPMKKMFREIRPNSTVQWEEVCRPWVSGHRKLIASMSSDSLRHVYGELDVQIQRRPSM
Experiment: Fluorescence-quenched A101 isopeptidase assay of FXIIIa inhibition kinetics
Format: biochemical
Details: for FXIIIa Inh. Mode: Rev = reversible, Irrev = irreversible, None = no inhibition detected up to 200 μM; for Selectivity: isozyme favoured, FXIIIa vs TG2, FXIIIa as the favoured isozyme; for selectivity for FXIIIa over TG2: from kinact/KI against FXIIIa and TG2
Method: All inhibitors synthesised herein were evaluated for inhibition against FXIIIa, using the fluorescence-quenched A101 isopeptidase assay, and against TG2, using the colorimetric AL5 transamidase assay. The assay substrates A101 and AL5 both present labile bonds that are cleaved by the activities of their corresponding transglutaminases, resulting in the release of a fluorophore or chromophore moiety, respectively. The rate of consumption of these assay substrates, indicated by increases in fluorescence or absorbance over time, can be detected for measuring enzyme activity. Assays were run in duplicate at constant reporter substrate concentration with varying concentrations of inhibitor. The type of inhibition was determined through visual inspection of the fluorescence-time curvature; termination of the enzymatic reaction with the substrate at a plateau lower than the no-inhibitor positive control is indicative of irreversible inhibition. On the other hand, convergence to a common plateau indicates reversible inhibition.
Irreversibility was tested further through substrate spike experiments. As shown in Supplementary Materials Figures S1–S3, an additional substrate was added to inhibited and uninhibited enzyme reactions after the completion of the positive control reaction. […] Analysis was carried out through corrected Dixon modelling in the case of reversible kinetics, to obtain Ki values (Figure 5B), and hyperbolic saturation modelling was used to obtain kinact and KI for inhibitors showing irreversibility (Figure 5E). For cases in which the tested inhibitor concentrations were not high enough to reach saturation, a linear regression provided an estimate of the inhibitor’s kinact/KI ratio (Figure 5D). Further details concerning data collection and analysis are provided in the Materials and Methods section.
A previously reported fluorescence-quenched isopeptidase assay using the commercially available substrate A101 (Zedira GmbH, Darmstadt, Germany) was employed for the determination of FXIIIa inhibition kinetics. All assays were performed at 37 °C on 96-well plates, with fluorescence (excitation at 313 nm, emission at 418 nm) measured continuously using a BioTek Synergy 4 plate reader. For each inhibitor, duplicate trials were run in parallel at 4 inhibitor concentrations, along with duplicate positive controls (no inhibitor) and negative controls (no enzyme and no inhibitor). First, 125 μL of aqueous buffer 1 (111 mM Tris, 16.7 mM CaCl2, 333 mM NaCl, pH 7.5) and 18 μL of aqueous buffer 2 (55.6 mM TCEP, 149 mM H-Gly-OMe, pH 7.5) were added to each well, along with 5 μL of A101 stock solution (4000 μM in DMSO). Next, the appropriate amount of the desired inhibitor, dissolved in DMSO, was added, in addition to the amount of distilled water necessary to reach a total volume of 180 μL in each well. Negative controls were diluted to a final volume of 200 μL. Thrombin-activated human FXIIIa (T070, Zedira GmbH, Darmstadt, Germany), stored at −80 °C in 20-μL aliquots (1 mg/mL enzyme) of storage buffer (50.0 mM Tris, 1.00 mM TCEP, 150 mM NaCl, pH 7.5) was warmed to room temperature and diluted to 0.0741 mg/mL through the addition of 250 μL of storage buffer. The diluted enzyme solution was then aliquoted into 10 separate PCR tubes. The assay plate and enzyme tubes were subsequently incubated at 37 °C for 10 min. After the completion of the incubation period, 20 μL of diluted FXIIIa solution was added from each PCR tube to all wells in the plate excluding the negative controls using a multi-channel pipette. This produced a final volume of 200 μL per well, with final reaction conditions of pH 7.5, 74.4 mM Tris, 10.4 mM CaCl2, 223 mM NaCl, 5.10 mM TCEP, 13.4 mM H-Gly-OMe, 100 μM A101, and 7.41 μg/mL (94 nM) FXIIIa. The range of inhibitor concentrations tested spanned from 1 to 200 μM, and the final DMSO concentration in the reaction mixture was kept below 10% v/v. […]

[1] = peptidic series, corrected Dixon plot, α = 13.5, read-out: FXIIIa Ki or KI: Ki of reversible inhibitors
[2] = small molecule series, reversible, Dixon plot, Interference = data afflicted by fluorescence interference
[3] = small molecule series, reversible, Dixon plot, Interference = data afflicted by fluorescence interference, read-out: FXIIIa Ki
[4] = dansyl and sulfonyl-naphthalene compounds, data afflicted by fluorescence interference and set aside, read-out: FXIIIa apparent Ki (interference)

Molecule: C=CC(=O)NCC[C@H](NC(=O)[C@@H](CC(=O)O)NC(C)=O)C(=O)N[C@@H](CCCC)C(=O)N[C@@H](CCCC)C(=O)N[C@@H](CC(C)C)C(=O)N1CCC[C@H]1C(=O)N[C@@H](Cc1c[nH]c2ccccc12)C(=O)N1CCC[C@H]1C(=O)O [Compound 12, Ac-D-Asp-Dab(Acrylamide)-Nle-Nle-Leu-Pro-Trp-Pro-OH] (Ac-[dD][Dab](Acryloyl)[Nle][Nle]LPWP-OH)
FXIIIa Inh. Mode: Rev | Selectivity: FXIIIa | Ki [1]: 193 ± 20 µM

Molecule: C=CC(=O)NCCCC[C@H](NC(=O)[C@@H](CC(=O)O)NC(C)=O)C(=O)N[C@@H](CCCC)C(=O)N[C@@H](CCCC)C(=O)N[C@@H](CC(C)C)C(=O)N1CCC[C@H]1C(=O)N[C@@H](Cc1c[nH]c2ccccc12)C(=O)N1CCC[C@H]1C(=O)O [Compound 14] (Ac-[dD]K(Acryloyl)[Nle][Nle]LPWP-OH)
FXIIIa Inh. Mode: Rev | Selectivity: FXIIIa | Ki [1]: 125 ± 20 µM

Molecule: CCCC[C@H](NC(=O)[C@H](CCCC=CC(=O)OC)NC(=O)[C@@H](CC(=O)O)NC(C)=O)C(=O)N[C@@H](CCCC)C(=O)N[C@@H](CC(C)C)C(=O)N1CCC[C@H]1C(=O)N[C@@H](Cc1c[nH]c2ccccc12)C(=O)N1CCC[C@H]1C(=O)O [Compound 47] (Ac-[dD][X2][Nle][Nle]LPWP-OH)
FXIIIa Inh. Mode: reversible and highly potent reversible FXIIIa inhibition and Rev | Selectivity: Irrev TG2 | Ki [1]: 0.0941 ± 0.0105 µM

Molecule: C=CC(=O)NCC(NC(=O)CC(=O)O)C(=O)N1CCN(C(=O)c2cccc3ccccc23)CC1 (centres unmarked) [Compound 72]
Ki [3]: 249 ± 69.3 µM

Molecule: C=CC(=O)NCC(NC(=O)C1(C(=O)OC)CC1)C(=O)N1CCN(S(=O)(=O)c2cccc3c(N(C)C)cccc23)CC1 (centres unmarked) [Compound 73]
FXIIIa Ki [2]: Interference *

Molecule: C=CC(=O)NCC(NC(=O)C1(C(=O)O)CC1)C(=O)N1CCN(S(=O)(=O)c2cccc3c(N(C)C)cccc23)CC1 [Compound 74, Acid-Cyclopropyl-L-Dap(Acryl)-Piperazine-Dansyl]
FXIIIa Ki [2]: Interference *

Molecule: C=CC(=O)NC(CNC(=O)CCC(=O)O)C(=O)N1CCN(C(=O)c2cccc3ccccc23)CC1 (centres unmarked) [Compound 84]
Ki [3]: 108 ± 19.1 µM

Molecule: COC(=O)C=CCCC(NC(=O)c1ccccc1C(=O)O)C(=O)N1CCN(C(=O)c2cccc3ccccc23)CC1 (centres unmarked) [Compound 88]
Ki [3]: 265 ± 46.8 µM

Molecule: Ac-D-Asp-Dap(Acrylamide)-Nle-Nle-Leu-Pro-Trp-Pro-OH [Compound 11]
FXIIIa Inh. Mode: complete loss of inhibition; also recorded: no inhibition; also recorded: None *

Results, then the molecule that gave them:

FXIIIa Inh. Mode: Rev | Selectivity: FXIIIa | Ki [1]: 135 ± 16 µM
Molecule: C=CC(=O)NCCC[C@H](NC(=O)[C@@H](CC(=O)O)NC(C)=O)C(=O)N[C@@H](CCCC)C(=O)N[C@@H](CCCC)C(=O)N[C@@H](CC(C)C)C(=O)N1CCC[C@H]1C(=O)N[C@@H](Cc1c[nH]c2ccccc12)C(=O)N1CCC[C@H]1C(=O)O [Compound 13] (Ac-[dD][Orn](Acryloyl)[Nle][Nle]LPWP-OH)

FXIIIa Inh. Mode: weak reversible inhibition and Rev | Selectivity: FXIIIa | Ki [1]: 53 ± 12 µM
Molecule: CCCC[C@H](NC(=O)[C@H](CC=CC(=O)OC)NC(=O)[C@@H](CC(=O)O)NC(C)=O)C(=O)N[C@@H](CCCC)C(=O)N[C@@H](CC(C)C)C(=O)N1CCC[C@H]1C(=O)N[C@@H](Cc1c[nH]c2ccccc12)C(=O)N1CCC[C@H]1C(=O)O [Compound 45] (Ac-[dD][X3][Nle][Nle]LPWP-OH)

FXIIIa Ki [2]: Interference *
Molecule: C=CC(=O)NCC(NC(=O)CC(=O)O)C(=O)N1CCN(S(=O)(=O)c2cccc3c(N(C)C)cccc23)CC1 (centres unmarked) [Compound 71]

FXIIIa Ki [2]: Interference *
Molecule: C=CC(=O)NCC(NC(=O)CCC(=O)O)C(=O)N1CCN(S(=O)(=O)c2cccc3c(N(C)C)cccc23)CC1 [Compound 75, Succinyl-L-Dap(Acryl)-Piperazine-Dansyl]

Ki [4]: 64.3 ± 5.1 µM | FXIIIa Ki [2]: Interference *
Molecule: C=CC(=O)NCC(NC(=O)CCC(=O)O)C(=O)N1CCN(S(=O)(=O)c2cccc3ccccc23)CC1 [Compound 76, Succinyl-L-Dap(Acryl)-Piperazine-Sulfonyl-Naphthalene]

Ki [3]: 69 ± 4.1 µM
Molecule: C=CC(=O)NCC(NC(=O)CCC(=O)O)C(=O)N1CCN(C(=O)c2cccc3ccccc23)CC1 [Compound 77, Succinyl-L-Dap(Acryl)-Piperazine-Naphthoyl]

Ki [4]: 26.7 ± 1.3 µM | FXIIIa Ki [2]: Interference *
Molecule: C=CC(=O)NCC(NS(=O)(=O)CC(=O)O)C(=O)N1CCN(S(=O)(=O)c2cccc3c(N(C)C)cccc23)CC1 (centres unmarked) [Compound 79]

Ki [3]: 131 µM
Molecule: COC(=O)C=CCCC(NC(=O)CCC(=O)O)C(=O)N1CCN(C(=O)c2cccc3ccccc23)CC1 (centres unmarked) [Compound 87]

selectivity for FXIIIa over TG2: around 6.5 fold | selectivity for FXIIIa over TG2 (listed as KM93): 6.5 fold | kinact/KI (irreversible inhibitors, saturation fit or linear regression): 2120 M⁻¹ s⁻¹
Molecule: CCCC[C@H](NC(=O)[C@H](CC/C=C/C(=O)OC)NC(=O)[C@@H](CC(=O)O)NC(=O)CCCCCNC(=O)[C@@H]1CCCN1C(=O)c1ccccc1-c1c2ccc(=[N+](CC)CC)cc-2oc2cc(N(CC)CC)ccc12)C(=O)N[C@@H](CCCC)C(=O)N[C@@H](CC(C)C)C(=O)N1CCC[C@H]1C(=O)N[C@@H](Cc1c[nH]c2ccccc12)C(=O)N1CCC[C@H]1C(=O)O [Compound 93] (RhodamineB-P[Ahx][dD][X1][Nle][Nle]LPWP-OH)

— publication PMC9960274, “Peptidic Inhibitors and a Fluorescent Probe for the Selective Inhibition and Labelling of Factor XIIIa Transglutaminase” (Molecules, 2023)
